Laboratory results published in the OligoGym collection.
Where “and” joins values, the source holds several entries; their conditions need not be identical. Equal values may be shown once. HELM strings list units from the 5' end as sugar, base in round brackets, then linkage (d deoxyribose, r ribose, m 2'-O-methyl, p phosphodiester). Methylation of C is not given here. [moe] = 2'-O-(2-methoxyethyl) (MOE); [cEt] = constrained ethyl (cEt); [sp] = phosphorothioate linkage

Target: HBV
Conditions: ASO

| Substance | target mRNA inhibition (HepG2, 0.07 µM) | further results |
| --- | --- | --- |
| RNA1{[moe](G)[sp].[moe](G)[sp].[moe](T)[sp].[moe](G)[sp].d(A)[sp].d(A)[sp].d(G)[sp].d(C)[sp].d(G)[sp].d(A)[sp].d(A)[sp].d(G)[sp].d(T)[sp].[moe](G)[sp].[moe](C)[sp].[moe](A)}$$$$V2.0 | 55% and 59% |  |
| RNA1{[moe](A)[sp].[cEt](C)[sp].[cEt](T)[sp].d(A)[sp].d(G)[sp].d(T)[sp].d(A)[sp].d(A)[sp].d(A)[sp].d(C)[sp].d(T)[sp].d(G)[sp].d(A)[sp].[cEt](G)[sp].[cEt](C)[sp].[moe](C)}$$$$V2.0 | 77% and 85% | target mRNA inhibition (HepG2, 0.0092593 µM): 24%; target mRNA inhibition (HepG2, 0.0277778 µM): 55%; target mRNA inhibition (HepG2, 0.0833333 µM): 74%; target mRNA inhibition (HepG2, 0.25 µM): 88% |
| RNA1{[moe](C)[sp].[moe](G)[sp].[moe](T)[sp].[moe](G)[sp].d(C)[sp].d(A)[sp].d(G)[sp].d(A)[sp].d(G)[sp].d(G)[sp].d(T)[sp].d(G)[sp].d(A)[sp].[moe](A)[sp].[moe](G)[sp].[moe](C)}$$$$V2.0 | 46% and 44% |  |
| RNA1{[moe](G)[sp].[cEt](G)[sp].d(T)[sp].d(G)[sp].d(A)[sp].d(A)[sp].d(G)[sp].d(C)[sp].d(G)[sp].d(A)[sp].d(A)[sp].d(G)[sp].[cEt](T)[sp].[moe](G)[sp].[cEt](C)[sp].[moe](A)}$$$$V2.0 | 80% and 81% | target mRNA inhibition (HepG2, 0.0092593 µM): 22%; target mRNA inhibition (HepG2, 0.0277778 µM): 51%; target mRNA inhibition (HepG2, 0.0833333 µM): 82%; target mRNA inhibition (HepG2, 0.25 µM): 88% |
| RNA1{[moe](G)[sp].[moe](A)[sp].[moe](A)[sp].d(G)[sp].d(C)[sp].d(G)[sp].d(A)[sp].d(A)[sp].d(G)[sp].d(T)[sp].d(G)[sp].d(C)[sp].d(A)[sp].[cEt](C)[sp].[cEt](A)[sp].[cEt](C)}$$$$V2.0 | 67% |  |
| RNA1{[moe](A)[sp].[moe](T)[sp].[moe](G)[sp].[moe](A)[sp].[moe](G)[sp].[moe](G)[sp].d(C)[sp].d(A)[sp].d(T)[sp].d(A)[sp].d(G)[sp].d(C)[sp].d(A)[sp].d(G)[sp].d(C)[sp].[moe](A)[sp].[moe](G)}$$$$V2.0 | 55% and 51% |  |
| RNA1{[moe](A)[sp].[moe](A)[sp].[moe](T)[sp].d(T)[sp].d(T)[sp].d(A)[sp].d(T)[sp].d(G)[sp].d(C)[sp].d(C)[sp].d(T)[sp].d(A)[sp].d(C)[sp].[cEt](A)[sp].[cEt](G)[sp].[cEt](C)}$$$$V2.0 | 47% and 36% |  |
| RNA1{[moe](A)[sp].[moe](G)[sp].[moe](A)[sp].d(G)[sp].d(A)[sp].d(A)[sp].d(G)[sp].d(T)[sp].d(C)[sp].d(C)[sp].d(A)[sp].d(C)[sp].[moe](C)[sp].[moe](A)[sp].[moe](C)[sp].[moe](G)[sp].[moe](A)}$$$$V2.0 | 59% and 56% |  |
| RNA1{[moe](T)[sp].[cEt](C)[sp].[cEt](A)[sp].d(G)[sp].d(C)[sp].d(A)[sp].d(A)[sp].d(A)[sp].d(C)[sp].d(A)[sp].d(C)[sp].d(T)[sp].d(T)[sp].[cEt](G)[sp].[cEt](G)[sp].[moe](C)}$$$$V2.0 | 67% and 71% |  |
| RNA1{[moe](A)[sp].[moe](T)[sp].[moe](T)[sp].d(T)[sp].d(A)[sp].d(T)[sp].d(G)[sp].d(C)[sp].d(C)[sp].d(T)[sp].d(A)[sp].d(C)[sp].[moe](A)[sp].[moe](G)[sp].[moe](C)[sp].[moe](C)[sp].[moe](T)}$$$$V2.0 | 58% and 50% |  |
| RNA1{[moe](G)[sp].[cEt](A)[sp].d(G)[sp].d(G)[sp].d(T)[sp].d(G)[sp].d(A)[sp].d(A)[sp].d(G)[sp].d(C)[sp].d(G)[sp].d(A)[sp].[cEt](A)[sp].[moe](G)[sp].[cEt](T)[sp].[moe](G)}$$$$V2.0 | 75% and 82% | target mRNA inhibition (HepG2, 0.0092593 µM): 17%; target mRNA inhibition (HepG2, 0.0277778 µM): 40%; target mRNA inhibition (HepG2, 0.0833333 µM): 65%; target mRNA inhibition (HepG2, 0.25 µM): 79% |
| RNA1{[moe](C)[sp].[cEt](T)[sp].d(A)[sp].d(G)[sp].d(T)[sp].d(A)[sp].d(A)[sp].d(A)[sp].d(C)[sp].d(T)[sp].d(G)[sp].d(A)[sp].[cEt](G)[sp].[moe](C)[sp].[cEt](C)[sp].[moe](A)}$$$$V2.0 | 74% and 76% |  |
| RNA1{[moe](G)[sp].[moe](A)[sp].[moe](A)[sp].[moe](G)[sp].[moe](C)[sp].[moe](G)[sp].d(A)[sp].d(A)[sp].d(G)[sp].d(T)[sp].d(G)[sp].d(C)[sp].d(A)[sp].d(C)[sp].d(A)[sp].[moe](C)[sp].[moe](G)}$$$$V2.0 | 87% and 66% |  |
| RNA1{[moe](G)[sp].[moe](A)[sp].[moe](G)[sp].d(G)[sp].d(T)[sp].d(G)[sp].d(A)[sp].d(A)[sp].d(G)[sp].d(C)[sp].d(G)[sp].d(A)[sp].[moe](A)[sp].[moe](G)[sp].[moe](T)[sp].[moe](G)}$$$$V2.0 | 57% and 54% |  |
| RNA1{[moe](G)[sp].[moe](A)[sp].[moe](G)[sp].d(G)[sp].d(T)[sp].d(G)[sp].d(A)[sp].d(A)[sp].d(G)[sp].d(C)[sp].d(G)[sp].d(A)[sp].d(A)[sp].[cEt](G)[sp].[cEt](T)[sp].[cEt](G)}$$$$V2.0 | 67% and 57% |  |
| RNA1{[moe](T)[sp].[moe](G)[sp].[moe](A)[sp].[cEt](G)[sp].d(G)[sp].d(C)[sp].d(A)[sp].d(T)[sp].d(A)[sp].d(G)[sp].d(C)[sp].d(A)[sp].d(G)[sp].[cEt](C)[sp].[moe](A)[sp].[moe](G)[sp].[moe](G)}$$$$V2.0 |  | target mRNA inhibition (HepG2, 0.009375 µM): 6%; target mRNA inhibition (HepG2, 0.01875 µM): 31%; target mRNA inhibition (HepG2, 0.0375 µM): 42%; target mRNA inhibition (HepG2, 0.075 µM): 58%; target mRNA inhibition (HepG2, 0.15 µM): 66%; target mRNA inhibition (HepG2, 0.3 µM): 82% |
| RNA1{[moe](G)[sp].[moe](G)[sp].d(C)[sp].d(A)[sp].d(T)[sp].d(A)[sp].d(G)[sp].d(C)[sp].d(A)[sp].d(G)[sp].d(C)[sp].[moe](A)[sp].[moe](G)[sp].[moe](G)[sp].[moe](A)[sp].[moe](T)}$$$$V2.0 | 52% and 40% |  |
| RNA1{[moe](G)[sp].[moe](G)[sp].[moe](C)[sp].[moe](A)[sp].[moe](T)[sp].d(A)[sp].d(G)[sp].d(C)[sp].d(A)[sp].d(G)[sp].d(C)[sp].d(A)[sp].d(G)[sp].d(G)[sp].[moe](A)[sp].[moe](T)}$$$$V2.0 | 55% and 41% |  |
| RNA1{[moe](T)[sp].[moe](T)[sp].[moe](A)[sp].[moe](T)[sp].d(G)[sp].d(C)[sp].d(C)[sp].d(T)[sp].d(A)[sp].d(C)[sp].d(A)[sp].d(G)[sp].d(C)[sp].[moe](C)[sp].[moe](T)[sp].[moe](C)[sp].[moe](C)}$$$$V2.0 | 52% and 34% |  |
| RNA1{[moe](C)[sp].[moe](G)[sp].[moe](T)[sp].d(G)[sp].d(C)[sp].d(A)[sp].d(G)[sp].d(A)[sp].d(G)[sp].d(G)[sp].d(T)[sp].d(G)[sp].[moe](A)[sp].[moe](A)[sp].[moe](G)[sp].[moe](C)[sp].[moe](G)}$$$$V2.0 | 70% and 64% |  |
| RNA1{[moe](C)[sp].[moe](T)[sp].d(G)[sp].d(G)[sp].d(A)[sp].d(G)[sp].d(C)[sp].d(C)[sp].d(A)[sp].d(C)[sp].d(C)[sp].[moe](A)[sp].[moe](G)[sp].[moe](C)[sp].[moe](A)[sp].[moe](G)}$$$$V2.0 | 57% and 53% |  |
| RNA1{[moe](A)[sp].[moe](G)[sp].[moe](G)[sp].d(C)[sp].d(A)[sp].d(T)[sp].d(A)[sp].d(G)[sp].d(C)[sp].d(A)[sp].d(G)[sp].d(C)[sp].[moe](A)[sp].[moe](G)[sp].[moe](G)[sp].[moe](A)}$$$$V2.0 | 54% and 53% |  |
| RNA1{[moe](A)[sp].[cEt](G)[sp].[cEt](T)[sp].d(C)[sp].d(C)[sp].d(A)[sp].d(C)[sp].d(C)[sp].d(A)[sp].d(C)[sp].d(G)[sp].d(A)[sp].d(G)[sp].[cEt](T)[sp].[cEt](C)[sp].[moe](T)}$$$$V2.0 | 62% and 45% |  |
| RNA1{[moe](A)[sp].[moe](C)[sp].[moe](T)[sp].d(G)[sp].d(G)[sp].d(A)[sp].d(G)[sp].d(C)[sp].d(C)[sp].d(A)[sp].d(C)[sp].d(C)[sp].[moe](A)[sp].[moe](G)[sp].[moe](C)[sp].[moe](A)}$$$$V2.0 | 53% and 72% | target mRNA inhibition (HepG2, 0.0092593 µM): 4%; target mRNA inhibition (HepG2, 0.0277778 µM): 23%; target mRNA inhibition (HepG2, 0.0833333 µM): 46%; target mRNA inhibition (HepG2, 0.25 µM): 56% |
| RNA1{[moe](C)[sp].[moe](C)[sp].[moe](A)[sp].[moe](A)[sp].d(T)[sp].d(T)[sp].d(T)[sp].d(A)[sp].d(T)[sp].d(G)[sp].d(C)[sp].d(C)[sp].d(T)[sp].[moe](A)[sp].[moe](C)[sp].[moe](A)}$$$$V2.0 | 24% and 8% |  |
| RNA1{[moe](A)[sp].[moe](A)[sp].[moe](T)[sp].[moe](T)[sp].d(T)[sp].d(A)[sp].d(T)[sp].d(G)[sp].d(C)[sp].d(C)[sp].d(T)[sp].d(A)[sp].d(C)[sp].[moe](A)[sp].[moe](G)[sp].[moe](C)}$$$$V2.0 | 38% and 34% |  |
| RNA1{[moe](A)[sp].[moe](C)[sp].[moe](G)[sp].d(G)[sp].d(G)[sp].d(C)[sp].d(A)[sp].d(A)[sp].d(C)[sp].d(A)[sp].d(T)[sp].d(A)[sp].d(C)[sp].[cEt](C)[sp].[cEt](T)[sp].[cEt](T)}$$$$V2.0 | 43% and 40% |  |
| RNA1{[moe](G)[sp].[moe](C)[sp].[moe](A)[sp].[moe](C)[sp].d(T)[sp].d(A)[sp].d(G)[sp].d(T)[sp].d(A)[sp].d(A)[sp].d(A)[sp].d(C)[sp].d(T)[sp].[moe](G)[sp].[moe](A)[sp].[moe](G)[sp].[moe](C)}$$$$V2.0 | 55% and 47% |  |
| RNA1{[moe](A)[sp].[cEt](G)[sp].d(G)[sp].d(A)[sp].d(G)[sp].d(T)[sp].d(T)[sp].d(C)[sp].d(C)[sp].d(G)[sp].d(C)[sp].d(A)[sp].[cEt](G)[sp].[moe](T)[sp].[cEt](A)[sp].[moe](T)}$$$$V2.0 | 74% and 87% | target mRNA inhibition (HepG2, 0.0092593 µM): 12%; target mRNA inhibition (HepG2, 0.0277778 µM): 40%; target mRNA inhibition (HepG2, 0.0833333 µM): 62%; target mRNA inhibition (HepG2, 0.25 µM): 82% |
